What was measured:
HIV = test: microbe, parasite or virus in culture; format: cell-based; settings: Human immunodeficiency virus 1, read-out: HIV (EC50) μM
H1N1 = test: microbe, parasite or virus in culture; format: cell-based; settings: Influenza A virus, H1N1, read-out: H1N1 (EC50) μM
EV71 = test: Virus inhibition activity assay based on cytopathic effects (neutral red), EV71; format: cell-based; settings: Enterovirus A, EV71, read-out: EV71 (EC50) μM
HSV = test: Virus inhibition activity assay based on cytopathic effects (neutral red), HSV; format: cell-based; settings: read-out: HSV (EC50) μM
CoxB3 = test: Virus inhibition activity assay based on cytopathic effects (neutral red), CoxB3; format: cell-based; settings: read-out: CoxB3 (EC50) μM
RSV = test: Virus inhibition activity assay based on cytopathic effects (neutral red), RSV; format: cell-based; settings: human respiratory syncytial virus, read-out: RSV (EC50) μM
[1] = 50% toxic concentration on cell (TC50), neutral red
H7N9 = test: microbe, parasite or virus in culture; format: cell-based; settings: Influenza A virus, H7N9, read-out: H7N9 (EC50) μM

With `COC1C(=O)N(Cc2ccccc2)c2ccc(Cl)cc2C1(O)c1ccccc1` (centres unmarked) [Example 29] the EC50 (HIV) was 0.05 to 5 µM, the EC50 (H1N1) was 5 to 50 µM and the EC50 (EV71) was 5 to 50 µM. For the same molecule, the EC50 (HSV) was 50 to 120 µM, the EC50 (CoxB3) was 0.05 to 5 µM and the EC50 (RSV) was 0.05 to 5 µM. It also gave a CC50 [1] of 50 to 100 µM and an EC50 (H7N9) of 0.05 to 5 µM.

From patent US10993938B2 (priority 2017, dated 2021)
